These are literature values, as cited in patent publication US10413531B2, “Methods of treating bladder cancer” (Abraxis BioScience, LLC, priority 2013, dated 2019).

The conditions of series [1]: Lin et al. (2013) Int J Cancer.
The subject of series [2] is ABCB1/ABCG2. As to conditions: Lin et al. (2013) Int J Cancer.

Molecules are shown by their SMILES.

On to `COc1ccc(COc2cc3oc(=O)c4cc(C(C)O)ccc4c3cc2OC)cc1` (centres unmarked) [Palomid 529], for which, in series [1], the brain penetration result was “good brain penetration”. The “affinity for ABCB1/ABCG2” value in series [2] is given as “lacks affinity for ABCB1/ABCG2”.
